These results are taken from patent EP4644375A1, “SUBSTITUTED HYDROQUINOLINES FOR THE TREATMENT OF GLIOBLASTOMA MULTIFORME” (Molius Saglik Teknolojileri Anonim Sirketi, priority 2024, dated 2025).

Data set [1] has as its system U138-MG human glioma cell. In words: Cell proliferation analysis (MTT). It counts as cell-based. To be noted: 10 µM, two days, MTT; for activity at 10 µM / inhibition at 10 µM: Homo sapiens, 48 h.
For another data set, the system named is U87-MG human glioma cell. In words: Cell proliferation analysis (MTT). It counts as cell-based. The conditions noted are these: 10 µM, two days, MTT; for activity at 10 µM / inhibition at 10 µM: Homo sapiens, U-87 MG, 48 h.
Data set [2] is described as follows: PAMPA permeability assay, gastrointestinal mimicking membrane. To be noted: 500 µM, 18 hours, 37 °C.
Procedure: Permeability assay and analyses were performed according to the manufacturer's instructions. […] After the loading of lipid solutions into the pores, all drug solutions and the permeability controls were put onto the lipid membrane in donor wells. The permeability assay was performed for 18 hours at 37 °C incubator. All samples were collected from acceptor wells after the incubation period was finished and the absorbance values were measured with equilibrium standards for normalization.
The next data set relates to GBM xenograft rat model. In words: In vivo GBM rat model: MRI analysis of tumor volumes. To be noted: GBM rats, 30 mg/kg oral, 5 days, MRI 14th vs 28th day. The method, then: An in Vivo study was performed to assess the therapeutic potential of TR-G002, TR-G045, TR-G053, TR-G066, TR-G071 and TR-G091 in the GBM xenograft rat model when administered orally by gavage for five consecutive days. 152 female rats of the Sprague Dawley strain were allocated to the study. Six groups of sixteen females were given dose of 30 mg/kg of the respective target compounds. […] The study design can be seen in Fig. 11 and Table 10.
Female Sprague Dawley rats (age: 6-8 weeks; weight: 255-310 g; ATADEM, Erzurum, Turkey) were utilized in the study. Rats underwent anaesthesia with 5% isoflurane, maintained at 2% isoflurane (1 L/min oxygen), and were positioned in a stereotactic frame for cell implantation (Stoelting Co., IL). […] A burr hole was drilled 1-mm anterior and 3-mm lateral to the right bregma. A microsyringe (Hamilton 1700 series) containing 5×10^4 U87-MG cells suspended in 5 µL of medium at 37 °C was advanced to a depth of 4 mm into the brain. The cells were injected at a rate of 3 µL/ min. Bone wax was used to fill the burr hole to prevent cell suspension reflux. The incision was sutured, and 1 mL of Meloxicam (5 mg/mL; Metacam, Boehringer Ingelheim Vetmedica, Ingelheim, Germany) was administered via a subcutaneous injection.
Fourteen days after inoculation, tumor development in rats was visualized and confirmed through magnetic resonance imaging (MRI). Rats confirmed to have developed tumors were then distributed into six different groups for treatment. […] 9 days after the final treatment dose, the rats underwent another MRI scan and blood and brain samples were taken under anaesthesia.
The anaesthetic was administered via an intraperitoneal route on animals fixed in the supine position with parallel hind limbs. MRI was performed using a 3 Tesla clinical scanner (Magnetom Skyra; Siemens Healthineers, Erlangen, Germany). Rats were placed in the prone position. T2-SPACE (sampling perfection with application-optimized contrast using different flip angle Evolution) sequence was obtained to view the brain in coronal and transverse planes. (TR: 6000 ms, TE: 100 ms, voxel size: 0.5 × 0.5 × 1 mm, 34 slices, slice thickness: 2 mm, slice spacing: 0.6 mm). The volume measurements of brain tumors were performed manually. One radiologist calculated the tumour volume - manually measuring tumour length (L), width (W), and height (H) - and then calculated the tumour volume using the formula 0.5236 × L × W × H (Stuppner S et al., 2020).

Turning to `O=C(COc1ccc2c(c1)CCC(=O)N2)N/N=C/c1ccc(F)cc1` [TR-G128, (E)-N'-(4-fluorobenzylidene)-2-((2-oxo-1,2,3,4-tetrahydroquinolin-6-yl)oxy)acetohydrazide], in data set [1], the activity at 10 µM is 68% and the inhibition at 10 µM stood at 32%. Further, in the data set on U87-MG human glioma cell, the activity at 10 µM worked out at 68% and the inhibition at 10 µM is 32%. In addition, in data set [2], the “permeability through the gastrointestinal mimicking membrane” value was “highly permeable”.

For the compound `O=C(COc1ccc2c(c1)CCC(=O)N2)NN=Cc1cccs1` [TR-G024, 2-((2-oxo-1,2,3,4-tetrahydroquinolin-6-yl)oxy)-N'-(thiophen-2-ylmethylene)acetohydrazide], the activity at 10 µM in data set [1] came out at 70%; in the data set on U87-MG human glioma cell, 80%. The inhibition at 10 µM in data set [1] was 30%; in the data set on U87-MG human glioma cell, 20%. Further, the “permeability through the gastrointestinal mimicking membrane” value in data set [2] is recorded as “highly permeable”.

As to `C=CCOc1ccc2c(c1)CCC(=O)N2` [TR-G014, 6-(allyloxy)-3,4-dihydroquinolin-2(1H)-one], the activity at 10 µM worked out at 51% in data set [1] and 82% in the data set on U87-MG human glioma cell. The inhibition at 10 µM was 49% in data set [1] and 18% in the data set with U87-MG human glioma cell. In addition, the “permeability through the gastrointestinal mimicking membrane” value in data set [2] is reported as “highly permeable”.

On to `O=C1CCc2cc(OS(=O)(=O)c3ccc([N+](=O)[O-])cc3)ccc2N1` [TR-G046, 2-oxo-1,2,3,4-tetrahydroquinolin-6-yl 4-nitrobenzenesulfonate], for which, in data set [1], the activity at 10 µM was 76% and the inhibition at 10 µM turned out to be 24%. Moreover, in the data set with U87-MG human glioma cell, the activity at 10 µM is 60% and the inhibition at 10 µM was 40%. Moreover, the tumor size entry in the data set on GBM xenograft rat model is “reduced the tumor size”.

In the case of `CN(C(=O)Oc1ccc2c(c1)CCC(=O)N2)c1ccccc1` [TR-G072, 2-oxo-1,2,3,4-tetrahydroquinolin-6-yl methyl(phenyl)carbamate], in data set [1], the activity at 10 µM turned out to be 85% and the inhibition at 10 µM came out at 15%. Moreover, in the data set on U87-MG human glioma cell, the activity at 10 µM was determined as 85% and the inhibition at 10 µM amounted to 15%. In addition, the “permeability through the gastrointestinal mimicking membrane” value in data set [2] is listed as “highly permeable”.

Consider `C#CCOc1ccc2c(c1)CCC(=O)N2` [TR-G006, 6-(prop-2-yn-1-yloxy)-3,4-dihydroquinolin-2(1H)-one], for which, in data set [1], the activity at 10 µM worked out at 86% and the inhibition at 10 µM is 14%. In addition, in the data set on U87-MG human glioma cell, the activity at 10 µM was determined as 86% and the inhibition at 10 µM came to 14%. The “permeability through the gastrointestinal mimicking membrane” value in data set [2] is recorded as “highly permeable”.

Turning to `CCOC(=O)Cn1cc(COc2ccc3c(c2)CCC(=O)N3)nn1` [TR-G033, Ethyl 2-(4-(((2-oxo-1,2,3,4-tetrahydroquinolin-6-yl)oxy)methyl)-1H-1,2,3-triazol-1-yl)acetate], in data set [1], the activity at 10 µM was 71% and the inhibition at 10 µM amounted to 29%. Moreover, in the data set on U87-MG human glioma cell, the activity at 10 µM worked out at 82% and the inhibition at 10 µM was 19%.

Regarding `Cc1ccc(F)cc1NC(=O)Oc1ccc2c(c1)CCC(=O)N2` [TR-G097, 2-oxo-1,2,3,4-tetrahydroquinolin-6-yl (5-fluoro-2-methylphenyl)carbamate], the figures for the activity at 10 µM (in data set [1]; with U87-MG human glioma cell) were 73% and 79%, respectively. The inhibition at 10 µM was 27% in data set [1] and 21% with U87-MG human glioma cell. Further, the “permeability through the gastrointestinal mimicking membrane” value in data set [2] is “highly permeable”.

For the compound `O=C1CCc2cc(OCCCCCCOC3CCCCO3)ccc2N1` (centres unmarked) [TR-G031, 6-((6-((tetrahydro-2H-pyran-2-yl)oxy)hexyl)oxy)-3,4-dihydroquinolin-2(1H)-one], the activity at 10 µM in data set [1] stood at 80%; in the data set on U87-MG human glioma cell, 72%. For the same compound, the inhibition at 10 µM is 20% in data set [1] and 28% with U87-MG human glioma cell.

As to `O=C1CCc2cc(OCc3cn(CCCN4C(=O)c5ccccc5C4=O)nn3)ccc2N1` [TR-G117, 2-(3-(4-(((2-oxo-1,2,3,4-tetrahydroquinolin-6-yl)oxy)methyl)-1H-1,2,3-triazol-1-yl)propyl)isoindoline-1,3-dione], the activity at 10 µM in data set [1] stood at 106%; in the data set with U87-MG human glioma cell, 96%. Moreover, the inhibition at 10 µM is -6% in data set [1] and 4% with U87-MG human glioma cell.

For `Cc1ccc(CN2C(=O)CCc3cc(OCCCCc4nnnn4C4CCCCC4)ccc32)cc1` [TR-G104, 6-(4-(1-cyclohexyl-1H-tetrazol-5-yl)butoxy)-1-(4-methylbenzyl)-3,4-dihydroquinolin-2(1H)-one], in data set [1], the activity at 10 µM is 83% and the inhibition at 10 µM turned out to be 17%. For the same compound, in the data set with U87-MG human glioma cell, the activity at 10 µM came out at 49% and the inhibition at 10 µM worked out at 51%.

Consider `C=CC(=O)N(NC(=O)COc1ccc2c(c1)CCC(=O)N2)C(=O)C=C` [TR-G040, N-acryloyl-N'-(2-((2-oxo-1,2,3,4-tetrahydroquinolin-6-yl)oxy)acetyl)acrylohydrazide], for which, in data set [1], the “Cell Proliferation (%)” value is listed as 98% and the inhibition at 10 µM is 2%. Besides, in the data set on U87-MG human glioma cell, the “Cell Proliferation (%)” value is on record as 91% and the inhibition at 10 µM turned out to be 9%.

As to `O=C1CCc2cc(OCc3cn(CCOCc4ccccc4)nn3)ccc2N1` [TR-G080, 6-((1-(2-(benzyloxy)ethyl)-1H-1,2,3-triazol-4-yl)methoxy)-3,4-dihydroquinolin-2(1H)-one], in data set [1], the activity at 10 µM turned out to be 71% and the inhibition at 10 µM stood at 29%. Moreover, in the data set on U87-MG human glioma cell, the activity at 10 µM is 79% and the inhibition at 10 µM was 21%.

For the compound `O=C(COc1ccc2c(c1)CCC(=O)N2)N/N=C/c1cccc(Oc2ccc(Cl)cc2)c1` [TR-G138, (E)-N'-(3-(4-chlorophenoxy)benzylidene)-2-((2-oxo-1,2,3,4-tetrahydroquinolin-6-yl)oxy)acetohydrazide], the inhibition at 10 µM in data set [1] was determined as 35%; with U87-MG human glioma cell, 50%.

For the compound `CCCOc1ccc2c(c1)CCC(=O)N2` [TR-G068, 6-propoxy-3,4-dihydroquinolin-2(1H)-one], the results for the activity at 10 µM (in data set [1]; in the data set with U87-MG human glioma cell) were 82% and 59%, respectively. Also, the inhibition at 10 µM came out at 18% in data set [1] and 42% with U87-MG human glioma cell.

Take `O=C(COc1ccc2c(c1)CCC(=O)N2)NN=Cc1ccc(Cl)cc1` [TR-G021, N'-(4-chlorobenzylidene)-2-((2-oxo-1,2,3,4-tetrahydroquinolin-6-yl)oxy)acetohydrazide]: the activity at 10 µM in data set [1] is 60%; with U87-MG human glioma cell it was 65%. Further, the inhibition at 10 µM amounted to 40% in data set [1] and 36% with U87-MG human glioma cell.

On to `O=C1CCc2cc(OCCCCc3nnnn3C3CCCCC3)ccc2N1Cc1ccccc1` [TR-G110, 1-benzyl-6-(4-(1-cyclohexyl-1H-tetrazol-5-yl)butoxy)-3,4-dihydroquinolin-2(1H)-one], for which the activity at 10 µM is 69% in data set [1] and 58% in the data set on U87-MG human glioma cell. Moreover, the inhibition at 10 µM in data set [1] was determined as 31%; in the data set on U87-MG human glioma cell it was 42%.

With `CCOC(=O)COc1ccc2c(c1)CCC(=O)N2` [TR-G012, ethyl 2-((2-oxo-1,2,3,4-tetrahydroquinolin-6-yl)oxy)acetate], in data set [1], the activity at 10 µM came out at 85% and the inhibition at 10 µM amounted to 15%. In addition, in the data set with U87-MG human glioma cell, the activity at 10 µM stood at 71% and the inhibition at 10 µM came to 29%.

In the case of `O=C1CCc2cc(OS(=O)(=O)c3cccc(Cl)c3Cl)ccc2N1` [TR-G042, 2-oxo-1,2,3,4-tetrahydroquinolin-6-yl 2,3-dichlorobenzenesulfonate], the “Cell Proliferation (%)” value amounted to 83% in data set [1] and 70% in the data set with U87-MG human glioma cell. Moreover, the inhibition at 10 µM in data set [1] stood at 17%; in the data set on U87-MG human glioma cell, 31%.

Turning to `O=C1CCc2cc(OC(=O)c3cc(C(F)(F)F)ccc3F)ccc2N1` [TR-G036, 2-oxo-1,2,3,4-tetrahydroquinolin-6-yl 2fluoro-5-(trifluoromethyl)benzoate], the activity at 10 µM in data set [1] came to 81%; with U87-MG human glioma cell, 68%. Moreover, the inhibition at 10 µM was found to be 19% in data set [1] and 32% in the data set with U87-MG human glioma cell.

As for `CCN(C)C(=O)Oc1ccc2c(c1)CCC(=O)N2` [TR-G037, 2-oxo-1,2,3,4-tetrahydroquinolin-6-yl ethyl(methyl)carbamate], in data set [1], the activity at 10 µM was determined as 65% and the inhibition at 10 µM was determined as 35%. In the data set with U87-MG human glioma cell, the activity at 10 µM worked out at 91% and the inhibition at 10 µM was determined as 9%.
